29 molecules from patent US8071650B2, “Thiourea derivatives and the pharmaceutical compositions containing the same” (Pacific Corporation, priority 2000, dated 2011) can be followed below.

The IC50 is the concentration at which inhibition is half-maximal.

The target in one test is T1, vanilloid receptor (Rattus norvegicus, UniProt O35433).
T1 construct: DRG nerve cells from the primary culture of 2-3 days were equilibrated; endogenous in cells; host or cells: primary culture of dorsal root ganglion neurons from neonatal SD rats
In words: 45Ca influx test, antagonistic activity against capsaicin (Calcium Uptake Test, IC50). It counts as cell-based. The protocol: 1) Separation of Spinal Dorsal Root Ganglia (DRG) in Newborn Rats and Primary Culture Thereof
Neonatal(2-day old or younger than 2-day old) SD rats were put in ice for 5 minutes to anesthetize and disinfected with 70% ethanol. […] The DRG were incubated sequentially at 37° C. for 30 min in 200 U/ml collagenase and 2.5 mg/ml trypsin, separately. The ganglia were washed twice with DME/F12 medium supplemented with 10% horse serum, triturated through a fire-polished Pasteur pipette, filtered through Nitex 40 membrane to obtain single cell suspension. This was subjected to centrifugation, then re-suspended in cell culture medium at certain level of cell density. As the cell culture medium, DME/F12 medium supplemented with 10% horse serum, diluted 1:1 with identical medium conditioned by C6 glioma cells (2 days on a confluent monolayer) was used, and NGF(Nerve Growth Factor) was added to final concentration of 200 ng/ml. After the cells were grown 2 days in medium where cytosine arabinoside (Ara-C, 100 μM) was added to kill dividing nonneuronal cells, medium was changed to one without Ara-C. The resuspended cells were plated at a density of 1500-1700 neurons/well onto Terasaki plates previously coated with 10 μg/ml poly-D-ornithine.
2) ^45Ca Influx Experiments
DRG nerve cells from the primary culture of 2-3 days were equilibrated by washing 4 times with HEPES (10 mM, pH 7.4)-buffered Ca^2+, Mg^2+-free HBSS (H-HBSS). The solution in each well was removed from the individual well. Medium containing the test compound plus capsaicin (final concentration 0.5 μM) and ^45Ca (final concentration 10 μCi/ml) in H-HBSS was added to each well and incubated at room temperature for 10 min. Terasaki plates were washed six times with H-HBSS and dried in an oven. To each well, 0.3% SDS (10 μl) was added to elute ^45Ca. After the addition of […] of scintillation cocktail into each well, the amount of ^45Ca influx into neuron was measured by counting radioactivity.

For test [1], the system named is Male ICR mice. The test is described as follows: Analgesic activity test: mouse writhing test by inducing with phenyl-p-quinone. To be noted: ip, 30 min before phenyl-p-quinone, read-out: Analgesic effect (% Inhibition); for inhibition in vivo at 10 mg/kg: dose 10 mg/kg intraperitoneally; for inhibition in vivo at 3 mg/kg: dose 3 mg/kg intraperitoneally. The test is classed as in vivo. The protocol:
(3) Analgesic Activity Test: Mouse Writhing Test by Inducing with phenyl-p-quinone
Male ICR mice (mean body weight 25 g) were maintained in a controlled lighting environment (12 h on/12 h off) for experiment. Animals received an intraperitoneal injection of 0.3 ml of the chemical irritant phenyl-p-quinone (dissolved in saline containing 5% ethanol to be a dose of 4.5 mg/kg) and 6 min later, the number of abdominal constrictions was counted in the subsequent 6 min period. Animals (10 animals/group) received 0.2 ml of test compounds solution in vehicle of ethanol/Tween 80/saline (10/10/80) intraperitoneally 30 min before the injection of phenyl-p-quinone. A reduction in the number of writhes responding to the test drug compound relative to the number responding in saline control group was considered to be indicative of an analgesic effect Analgesic effect was calculated by % inhibition equation (% inhibition=(C−T)/C×100), wherein C and T represent the number of writhes in control and compound-treated group, respectively (Table 2).

The subject of test [2] is Male ICR mice. The test is described as follows: Antiinflammatory activity test: TPA-induced mouse ear edema test. To be noted: dose 1 mg/ear topically, ear weight 24 h after TPA. The test is classed as in vivo. The protocol: (4) Antiinflammatory Activity Test: TPA(12-O-tetraecanoylphorbol 13-acetate)-induced mouse ear edema test
Male ICR mice(body weight 25-30 g), 10 animals/group, were treated topically on the right ear with 30 μl of TPA (2.5 μg) solution in acetone and after 15 min, 30 μl of acetone or test compound solution in acetone was applied topically. After six hours, an identical treatment was applied again. After twenty four hours following the treatment of TPA, the animals were sacrificed and ear tissue was dissected using 6 mm-diameter punch. Ear tissue dissected were weighed to the nearest 0.1 mg on an electrobalance. The increased weight of the tissue compared to control group was considered as an index of inflammation. The percent inhibition is defined by the following equation:
% inhibition=(C−T)/C×100, wherein C and T represent an increase of ear weight in TPA-treated and TPA+drug-treated group, respectively (Table 3).

A further test concerns Male SD rats. In words: Ulcer test: ethanol-induced anti-ulcer test. To be noted: dose 30 mg/kg orally, 1 hour before 99% ethanol. It counts as in vivo, rat. The protocol:
(5) Ulcer Test: Ethanol-induced Anti-ulcer Test
Male SD rats (body weight 180-200 g), 5 animals/group, were fasted for 24 hours, and their stomaches were damaged. The rats were administered with 10 ml/kg of test drug suspended in 1% methylceflulose orally and, after 1 hour, 1 ml of 99% ethanol orally. After 1 hour without food and water, the rats were sacrificed by cervical dislocation and stomaches thereof were removed. The removed stomaches were incised along the greater curvature and opened.

Where [3] appears, read: Table 1a, neonatal SD rat DRG neurons, inhibition of response to capsaicin 0.5 μM.

Molecules are shown by their SMILES. Where two headings read alike, the source gives them in different places.

T1 sequence (O35433 whole entry): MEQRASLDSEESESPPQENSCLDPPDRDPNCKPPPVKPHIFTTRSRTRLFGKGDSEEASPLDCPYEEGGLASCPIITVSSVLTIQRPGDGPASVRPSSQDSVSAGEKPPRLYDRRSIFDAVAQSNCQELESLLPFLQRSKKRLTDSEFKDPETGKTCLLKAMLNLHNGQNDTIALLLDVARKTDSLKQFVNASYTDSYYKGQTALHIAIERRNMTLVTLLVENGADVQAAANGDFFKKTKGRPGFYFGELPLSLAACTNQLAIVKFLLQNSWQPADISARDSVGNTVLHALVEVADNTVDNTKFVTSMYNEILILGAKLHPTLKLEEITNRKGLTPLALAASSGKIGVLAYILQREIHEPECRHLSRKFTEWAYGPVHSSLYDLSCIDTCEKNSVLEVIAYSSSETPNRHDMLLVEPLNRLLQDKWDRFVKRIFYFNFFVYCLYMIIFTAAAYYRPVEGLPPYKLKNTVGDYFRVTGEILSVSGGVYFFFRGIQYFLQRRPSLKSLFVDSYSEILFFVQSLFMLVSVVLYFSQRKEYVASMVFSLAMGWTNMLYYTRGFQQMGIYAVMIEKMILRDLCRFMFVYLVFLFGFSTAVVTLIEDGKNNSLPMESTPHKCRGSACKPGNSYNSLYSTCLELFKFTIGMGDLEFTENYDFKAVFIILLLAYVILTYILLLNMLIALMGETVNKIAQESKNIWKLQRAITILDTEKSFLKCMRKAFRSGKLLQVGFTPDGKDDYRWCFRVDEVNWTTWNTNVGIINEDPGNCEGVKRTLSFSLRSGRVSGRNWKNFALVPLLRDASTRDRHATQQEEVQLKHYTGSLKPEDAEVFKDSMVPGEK

`Oc1cc2c(cc1O)CN(C(=S)NCCc1ccc(Cl)cc1)CCC2` [Capsazepine, capsazepine, reference compound]: the IC50 at vanilloid receptor came to 590 nM. With `Cn1cccc1CCNC(=S)NCc1ccc(C(C)(C)C)cc1` [Example 5, 1-(4-t-butylbenzyl)-3-[2-(1-methyl-1H-pyrrol-2-yl)ethyl]thiourea], the IC50 on vanilloid receptor was found to be 1100 nM. The inhibition in vivo at 10 mg/kg in the test on Male ICR mice [1] turned out to be 53%.

Consider `CC(C)(C)c1ccc(CNC(=S)NCc2cc(F)c(N)cc2F)cc1` [Example 9, 1-(4-amino-2,5-difluorobenzyl)-3-(4-t-butylbenzyl)thiourea], for which the IC50 at vanilloid receptor worked out at 230 nM. With `CC(C)(C)c1ccc(CNC(=S)NCc2ccc(NS(C)(=O)=O)c(F)c2)cc1` [Example 13, 1-(4-t-butylbenzyl)-3-(3-fluoro-4-methanesulfonylaminobenzyl)thiourea], the IC50 at vanilloid receptor (setting [3]) worked out at 37 nM. Further, the “Anti-inflammtory effect (% Inhibition)” value in the test with Male ICR mice [2] stood at 74%. Besides, the “Anti-ulcerous effect (% inhibition)” value with Male SD rats was 30%. The inhibition in vivo at 10 mg/kg in the test with Male ICR mice [1] stood at 82%. For `CS(=O)(=O)Nc1ccc(CNC(=S)NCCc2ccccc2)cc1F` [Example 15, 1-phenethyl-3-(3-fluoro-4-methanesulfonylaminobenzyl)thiourea], at vanilloid receptor, the IC50 was 1200 nM.

For `CC(C)(C)c1ccc(CNC(=S)NCc2ccc(NS(C)(=O)=O)c(Cl)c2)cc1` [Example 17], on vanilloid receptor (setting [3]), the IC50 came out at 8.4 nM. Moreover, in the test on Male ICR mice [2], the “Anti-inflammtory effect (% Inhibition)” value is 80%. Also, in the test on Male SD rats, the “Anti-ulcerous effect (% inhibition)” value was found to be 58%. For the same molecule, the inhibition in vivo at 10 mg/kg in the test on Male ICR mice [1] was 98%. With `COC(=O)c1cc(CNC(=S)NCc2ccc(C(C)(C)C)cc2)ccc1NS(C)(=O)=O` [Example 18], the 50% inhibitory concentration (IC50) at vanilloid receptor (setting [3]) was 720 nM. Consider `CC(C)(C)c1ccc(CNC(=S)NCc2ccc(NS(C)(=O)=O)c(C(=O)O)c2)cc1` [Example 19, 1-(4-t-butylbenzyl)-3-(3-carboxyl-4-methanesulfonylaminobenzyl)thiourea], for which, at vanilloid receptor, the 50% inhibitory concentration (IC50) stood at 5.8 nM. Same read-out and setting: as for `COC(=O)c1cccc(CNC(=S)NCc2ccc(C(C)(C)C)cc2)c1` [Example 30], the figure is 1500 nM; as for `CC(C)(C)c1ccc(CNC(=S)NCc2c(F)c(F)c(NS(C)(=O)=O)c(F)c2F)cc1` [Example 32, 1-(4-t-butylbenzyl)-3-(2,3,5,6-tetrafluoro-4-methanesulfonylaminobenzyl)thiourea], 31 nM. Regarding `CC(C)(C)c1ccc(CNC(=S)NCc2cc(F)c(NS(C)(=O)=O)cc2F)cc1` [Example 33, 1-(4-t-butylbenzyl)-3-(2,5-difluoro-4-methanesulfonylaminobenzyl)thiourea], the IC50 on vanilloid receptor worked out at 110 nM. The “Anti-inflammtory effect (% Inhibition)” value with Male ICR mice [2] turned out to be 66%. Moreover, the “Anti-ulcerous effect (% inhibition)” value in the test with Male SD rats is given as 31%. Take `CC(C)(C)c1ccc(CNC(=S)NCCc2ccc(NS(C)(=O)=O)cc2)cc1` [Example 36, 1-(4-t-butylbenzyl)-3-(4-methanesulfonylaminophenethyl)thiourea]: the IC50 on vanilloid receptor amounted to 1100 nM. For `CC(C)(C)c1ccc(CNC(=S)NCc2ccc(NS(C)(=O)=O)cc2)cc1` [Example 44], the “Anti-inflammtory effect (% Inhibition)” value in the test on Male ICR mice [2] is 83%. For the same molecule, the “Anti-ulcerous effect (% inhibition)” value in the test with Male SD rats was 36%. The inhibition in vivo at 3 mg/kg in the test on Male ICR mice [1] amounted to 92%.

For the molecule `CC(C)(C)c1ccc(CNC(=S)NCc2c(F)ccc(NS(C)(=O)=O)c2F)cc1` [Example 51, 1-(4-t-butylbenzyl)-3-(2,6-difluoro-3-methanesulfonylaminobenzyl)thiourea], on vanilloid receptor, the IC50 was determined as 700 nM.

Take `CC(C)(C)c1ccc(CNC(=S)NCc2cccc(NS(C)(=O)=O)c2)cc1` [Example 52, 1-(4-t-butylbenzyl)-3-(3-methanesulfonylaminobenzyl)thiourea]: the inhibition in vivo at 10 mg/kg with Male ICR mice [1] came to 94%. Regarding `CC(=O)OCc1cc(C(C)(C)C)ccc1CNC(=S)Nc1ccc(NS(C)(=O)=O)cc1` [Example 70, 1-(2-acetoxymethyl-4-t-butylbenzyl)-3-(4-methanesulfonylaminobenzene)thiourea], the IC50 on vanilloid receptor (Table 1b, neonatal SD rat DRG neurons, inhibition of response to capsaicin 0.5 μM) was 580 nM. In the case of `Cc1ncsc1CCNC(=S)NCc1ccc(C(C)(C)C)cc1` [Example 73, 1-(4-t-butylbenzyl)-3-[2-(4-methylthiazol-5-yl)ethyl]thiourea], at vanilloid receptor, the IC50 came to 1200 nM. In addition, the “Anti-inflammtory effect (% Inhibition)” value with Male ICR mice [2] came out at 77%. Also, in the test on Male SD rats, the “Anti-ulcerous effect (% inhibition)” value is reported as 22%. Moreover, the inhibition in vivo at 10 mg/kg with Male ICR mice [1] worked out at 88%. For `CC(C)(C)c1ccc(CNC(=S)NCCc2ccccn2)cc1` [Example 83], the 50% inhibitory concentration (IC50) at vanilloid receptor was determined as 1100 nM. Also, the inhibition in vivo at 10 mg/kg with Male ICR mice [1] came out at 85%.

As for `CC(C)(C)c1ccc(CNC(=S)NCc2cc(F)ccc2F)cc1` [Example 90], the IC50 on vanilloid receptor is 420 nM. With `CC(C)(C)c1ccc(CNC(=S)NCCc2cccc(F)c2)cc1` [Example 96], the 50% inhibitory concentration (IC50) on vanilloid receptor turned out to be 590 nM. In addition, in the test with Male ICR mice [1], the inhibition in vivo at 10 mg/kg was found to be 58%. On to `Cn1cc(NS(C)(=O)=O)cc1CNC(=S)NCc1ccc(C(C)(C)C)cc1` [Example 134], for which the IC50 at vanilloid receptor was 810 nM. The same measure, in the same setting: as for `COc1cc(CCCN(Cc2ccccc2)/C(S)=N/CCc2ccccc2)ccc1O` [Example 152], the figure is 950 nM.

On to `COc1cc(CCCN(C(=S)NCCc2ccccc2)C(c2ccccc2)c2ccccc2)ccc1O` [Example 161], for which, on vanilloid receptor, the IC50 is 460 nM. Further, the inhibition in vivo at 1 mg/kg in the test with Male ICR mice [1] (dose 1 mg/kg intraperitoneally) stood at 73%. `CC(C)(C)c1ccc(CNC(=NC#N)NCc2ccc(NS(C)(=O)=O)cc2)cc1` [Example 178]: the IC50 at vanilloid receptor is 110 nM. `CC(C)(C)c1ccc(CCC(=O)NCc2ccc(NS(C)(=O)=O)c(F)c2)cc1` [Example 193, N-(3-fluoro-4-methanesulfonylaminobenzyl) 3-(4-t-butylphenyl)propionamide]: on vanilloid receptor, the IC50 is 210 nM. Same read-out and setting: as for `CNS(=O)(=O)Nc1ccc(C/N=C(\S)NCc2ccc(C(C)(C)C)cc2)cc1` [Example 194, 1-(4-t-butylbenzyl)-3-(4-methylaminosulfonylaminobenzyl)thiourea], the figure is 310 nM; as for `CC(C)(C)c1ccc(CNC(=S)NCc2ccc(NS(N)(=O)=O)cc2)cc1` [Example 196, 1-(4-t-butylbenzyl)-3-(4-aminosulfonylaminobenzyl)thiourea], 150 nM. For `COc1ccc2c(c1)c(CC(=O)O)c(C)n2C(=O)c1ccc(Cl)cc1` [Indomethacin, indomethacin, reference compound], in the test on Male ICR mice [2], the “Anti-inflammtory effect (% Inhibition)” value was 74%. In addition, the inhibition in vivo at 3 mg/kg in the test on Male ICR mice [1] worked out at 94%. Turning to `CNC(=C[N+](=O)[O-])NCCSCc1ccc(CN(C)C)o1` [Ranitidine, ranitidine, reference compound], the “Anti-ulcerous effect (% inhibition)” value in the test on Male SD rats came out at 4%.
